Source: patent publication US9918941B2 (Eastbrand Holding GMBH, priority 2012, dated 2018)

Key:
[1] = test system: acute chemical visceral pain model; experiment: Analgesic activity, abdominal contraction test with acetic acid (Writhing Test); assay type: in vivo, Swiss rats; conditions: inhibition of number of contractions vs control animals
Description: Adult male Swiss rats were used in the assay, 28-30 g in weight, 10 animals per treatment group or for each assessed dose level. 1-The analgesic activity/action was assessed by using an acute chemical visceral pain model, the abdominal contraction test with acetic acid (Writhing Test) (Miranda, H; Puig, […]. Synergism between paracetamol and nonsteroidal anti-inflammatory drugs in experimental acute pain. Pain (12) 2006. 22-28) ([…]. The Type of Analgesic-Receptor interaction involved in certain analgesic assays. European Journal of Pharmacology 16 (1971) 63-66. North Holland Publishing Company) […] The antinociceptive activity was expressed as the inhibition percentage of the number of contractions observed in the animals in the groups treated at each of the assessed dose levels, with respect to the number of contractions in the study control animals.

gastric mucus = experiment: Gastric tolerance, Pisanti-Volterra method; assay type: in vivo, Sprague Dawley rats; conditions: rats, score 0 (normal stomach) to 6 (perforated ulcer)
Excerpt: The following scores were attributed according to the type and intensity of the injury observed: • Score 0=Normal stomach without injury; 1=Haemorrhaging points; 2=Haemorrhaging diffusion (reddening of the surface); 3=1-5 small ulcers (<3 mm); 4=Large number of small ulcers or a deep isolated ulceration; 5=Many ulcers of various size; 6=Perforated ulcer. • The degree of gastric injury is defined by the average score; the higher score corresponds to a greater gastric injury

[2] = test system: Carrageenin-induced edema in the paw; experiment: Anti-inflammatory activity, Carrageenin-induced edema in the paw (Winter, Risley and Nuss); assay type: in vivo, Sprague Dawley rats; conditions: rats, ± e.s.
[3] = Degradation / related substances (USP analytical method); assay type: physicochemical; conditions: reaction mixture up to 60° C. and gelation, finished microcapsules
Excerpt: No related substances derived from the degradation of diclofenac mentioned in USP were detected in HPSC.
Only 2% were found above 1000, and only 1% under 250 micron.

degradation / related substances [3]	Compound	Analgesic Activity (% Inhibition) Avg. Score ± e.s. ([1]; Dose: 12.5 mg/kg) [%]	Analgesic Activity (% Inhibition) Avg. Score ± e.s. ([1]; Dose: 25.0 mg/kg) [%]	Degree of Gastric Injury Avg. score ± e.s. (gastric mucus; Dose: 12.5 mg/kg)	Degree of Gastric Injury Avg. score ± e.s. (gastric mucus; Dose: 25.0 mg/kg)	Degree of Gastric Injury Avg Score ± e.s. (gastric mucus; Dose: 50.0 mg/kg)	% Inflammation inhibition 1st hour ([2]; Dose: 12.5 mg/kg) [%]	% Inflammation inhibition 2nd hour ([2]; Dose: 12.5 mg/kg) [%]	% Inflammation inhibition 3rd hour ([2]; Dose: 12.5 mg/kg) [%]	% Inflammation inhibition 4th hour ([2]; Dose: 12.5 mg/kg) [%]	% Inflammation inhibition 5th hour ([2]; Dose: 12.5 mg/kg) [%]	% Inflammation inhibition 2nd hour ([2]; Dose: 25.0 mg/kg) [%]	% Inflammation inhibition 3rd hour ([2]; Dose: 25.0 mg/kg) [%]	% Inflammation inhibition 4th hour ([2]; Dose: 25.0 mg/kg) [%]	% Inflammation inhibition 5th hour ([2]; Dose: 25.0 mg/kg) [%]	% Inflammation inhibition 2nd hour ([2]; Dose: 50.0 mg/kg) [%]	% Inflammation inhibition 3rd hour ([2]; Dose: 50.0 mg/kg) [%]	% Inflammation inhibition 4th hour ([2]; Dose: 50.0 mg/kg) [%]	% Inflammation inhibition 5th hour ([2]; Dose: 50.0 mg/kg) [%]
–	O=C(O)Cc1ccccc1Nc1c(Cl)cccc1Cl [diclofenac potassium]	53.23 ± 5.53	67.26 ± 4.62	2.64 ± 0.59	3.81 ± 0.35	4.80 ± 0.50	37.2 ± 12.2	42.5 ± 13.1	28.3 ± 9.5	30.6 ± 9.8	29.7 ± 10.8	36.4 ± 8.49	28.0 ± 13.56	23.3 ± 6.66	15.7 ± 5.61	45.8 ± 8.3	41.4 ± 6.9	47.2 ± 5.2	43.2 ± 4.5
not degraded	O=C(O)Cc1ccccc1Nc1c(Cl)cccc1Cl [diclofenac, 2-((2,6 dichlorophenyl)amino)phenyl acetic (diclofenac) acid]	–	–	–	–	–	–	–	–	–	–	–	–	–	–	–	–	–	–
